How the values were obtained:
[1] = test system: U2OS (osteosarcoma) cells; experiment: Soft agar assay (anchorage-independent growth), U2OS; type: cell-based, human
Experimental: (§1) Soft agar assay and analysis was carried out as previously described. For scratch assay, confluent monolayer of U2OS and HT-1080 cells were subjected to scratch using a sterile pipette tip. Wounded monolayers were washed to remove debris and incubated with SEN461 at different concentrations for 20 hours. After the incubation period, images were taken under an Axiovert 200M (Zeiss) microscope equipped with a CCD camera, and the gap width was measured using MetaMorph 6.3 software (Universal Imaging Corp.) to calculate the area covered by cells (pixels unit). The tube formation assay was performed using growth factor-reduced Matrigel from BD (BD Biosciences; San Jose, CA, USA). Matrigel was thawed overnight at 4°C and was diluted (1∶1) with phenol red-free DMEM without serum. 100 µl of the diluted matrigel was used to coat the wells of a 96 well plate and was allowed to polymerize for 2 hours at 37°C. After equilibrating the gel with the complete growth medium, 15×10^3 cells were seeded in each well and incubated for 20 hours. The tube formation was monitored under a phase contrast microscope (Axiovert 200, Zeiss) and imaged using MetaMorph system (Universal Imaging Corp).

HUVEC cells = experiment: Tube formation assay, HUVEC; type: cell-based; details: data not shown
Experimental: as §1

[2] = test system: HT-1080 (fibrosarcoma) cells; experiment: Soft agar assay (anchorage-independent growth), HT-1080; type: cell-based, human
Experimental: as §1

[3] = test system: Wnt transcriptional activity (TCF reporter) in U2OS cells; experiment: TCF-Luciferase/TA-Renilla Wnt reporter assay in U2OS; type: cell-based, human; details: 24 h, concentration dependent
Text: (§2) The generation of TCF-Luciferase and TA-Renilla reporter plasmids as well as IC50 determination and calculation was reported previously. Human AXIN1 and WNT3A cDNAs were purchased from Origene as “transfection ready” plasmids. Dominant negative TCF4 cDNA was purchased from Upstate. Luciferase reporter of the nucleolin promoter (pNucL14) and FLAG-c-Myc expressing vector were from B. Amati. Luciferase reporter of the Hes5 promoter and Notch1-IC expressing vector were from I. Screpanti. Lentiviral vectors for inducible dominant negative TCF4 (rLV-EF1-tTS, rLV-EF1-rtTA and rLV-TRE-CMV-HA-TCF4DN) were purchased from Vectalys.
(§3) Transfections were carried out using Lipofectamine 2000 (Invitrogen) according to the manufacturer’s instructions. Lentiviral expression of TCF-Luc, TA-Renilla, and the inducible dominant negative TCF4, were carried out following Vectalys instructions. For reporter assays, luciferase activities were performed as described previously.

[4] = test system: human mRNA in HT-1080 xenograft tumors; experiment: Gene expression (qPCR) in HT-1080 xenograft tumors; type: in vivo, female Crl:CD-1 nude mice
Experimental: RNA extraction and quantitative RT-PCR (qPCR) expression analysis was performed as described previously. Gene expression analysis was performed using the human housekeeping gene RPL13A. Primers for the hAXIN2, hCDC25A, hc-MYC, hFZD4, hDVL2, hCSNK1G and hVEGF-A were the following: [NT] Rv: [NT] Rv: [NT] Rv: [NT] Rv: [NT] Rv: [NT] Rv: [NT] Rv: [NT]. Female athymic nude mice (6 weeks old, Crl:CD-1 nude mice) were obtained from Charles River Italia (Calco, Italy). HT-1080 cells (6×10^∧6 cells) were resuspended in 200 μl of PBS 1X and injected subcutaneously in the right flank of the mice. Body weight and tumor measurements (using a digital caliper) were performed twice a week. […] SEN461 was formulated in 0.5% w/v Methocel in MilliQ water and administered PO by oral gavage twice a day at 30 mg/kg for seven consecutive days in a total of 15 animals (n = 5 for each time point). Control animals (n = 5) were administered with the vehicle for the same time period. On treatment day 19, the mice were euthanized under inhalant anesthesia with isoflurane and tumor and blood samples were collected at three different time points (1-4-8 h, n = 5 animals for each time point) after last treatment and subjected to gene expression analysis and compound quantification. All mice were maintained in a conventional-specific-pathogen-free facility according to the NIH guidelines using an approved Animal Care and Use Committee protocol. During all the experimental time period, mice were housed (5 animals/cage) in individually ventilated solid floor plastic cages (Sealsafe Plus GR500, Tecniplast-Gazzada (VA) - Italy) using as bedding the Sawdust SCOBIS UNO by […] (via Galileo […] Milanese, Milano, Italy). Cages were maintained at a temperature of 20-24°C and humidity of 40-70% (Siemens Desigo Apparatus ver. 4.1) with 70 air changes/hour in the cage (10-15 air changes/hour in the room). Animals were subjected to a 12-hour light/12-hour dark cycle and have free access to a standard pelleted commercial laboratory diet (Certified Rodent irradiated 4RF21- Mucedola, Italy) and to municipal tap water, purified by reverse osmosis and autoclaved. The study was conducted in compliance with Decreto Legislativo January 27, 1992, N. 116, Gazzetta Ufficiale N. 40 February 18, 1992, (Directive N. […]) concerning protection of animals used for scientific purposes. The project was authorized by the Italian Institute of Health (48/2009/B). The experimental protocol was […] approved by the Internal Ethical Committee.

[5] = test system: Axin1, c-Myc, p21 protein in HT-1080 cells; experiment: Western blotting in HT-1080; type: cell-based, human; details: HT-1080, overnight
143B osteosarcoma cells = experiment: Soft agar assay (anchorage-independent growth), 143B; type: cell-based, human; details: lack of sensitivity up to highest concentration
Experimental: as §1

[6] = test system: Myc transcriptional activation in HT-1080 cells; experiment: Nucleolin promoter (pNucL14) luciferase reporter, HT-1080; type: cell-based, human; details: HT-1080, pNucL14 ± FLAG-c-Myc
Text: as §2, §3

[7] = test system: Wnt target gene mRNA in HT-1080 cells; experiment: Quantitative RT-PCR of Wnt target genes in HT-1080; type: cell-based, human; details: HT-1080, overnight, 10 µmol/L
Experimental: RNA extraction and quantitative RT-PCR (qPCR) expression analysis was performed as described previously. Gene expression analysis was performed using the human housekeeping gene RPL13A. Primers for the hAXIN2, hCDC25A, hc-MYC, hFZD4, hDVL2, hCSNK1G and hVEGF-A were the following: Fw: 5′-CAAGGGCCAGGTCACCAA-3′ Rv: 5′-CCCCCAACCCATCTTCGT-3′; Fw: 5′-[…]-3′ Rv: 5′-[…]-3′; Fw: 5′-GGCTCCTGGCAAAAGGTCA-3′ Rv: 5′-[…]-3′; Fw: 5′-[…]-3′ Rv: 5′-[…]-3′; Fw: 5′-[…]-3′ Rv: 5′-GTCTCCCCGCTCATTGCTC-3′; Fw: 5′-[…]-3′ Rv: 5′-[…]-3′; Fw: 5′-[…]-3′ Rv: 5′-[…]-3′.

[8] = test system: Axin1 and β-catenin in 143B osteosarcoma cells; experiment: Western blotting in 143B; type: cell-based, human
[9] = 30 mg/kg BID PO 7 days, data not shown

COCC(=O)N1CCN(C(=O)C2CCC(Cn3c(=O)c4cc(OC)ccc4n(C)c3=O)CC2)CC1 (stereo not shown) [SEN461]
IC50 [1]: 300 nM | tubule-formation activity (HUVEC cells): did not show any effect | IC50 [2]: 780 nM | TCF-dependent reporter activity (TCF-Luciferase/TA-Renilla) [3]: reduced TCF-dependent reporter activity | AXIN2 mRNA in HT-1080 xenograft tumors [4, 9]: without any significant effect | CDC25A mRNA in HT-1080 xenograft tumors [4, 9]: without any significant effect | c-MYC mRNA in HT-1080 xenograft tumors ([4]; 30 mg/kg BID PO 7 days, 1, 4, 8 h, vs control animals): down-modulation of c-MYC | VEGF-A mRNA in HT-1080 xenograft tumors ([4]; 30 mg/kg BID PO, 1 h, treated versus control): did not show any difference | Axin1 protein level [5]: robust concentration dependent stabilization | CDK inhibitor p21 protein level [5]: up-regulation | c-Myc protein level [5]: down-modulation of c-Myc | IC50 (143B osteosarcoma cells): > 30000 nM | Myc mediated activation / basal activity of nucleolin reporter [6]: did not affect | c-MYC mRNA [7]: significant down-modulation | Axin1 protein level [8]: Axin1 stabilization | cytoplasmic β-catenin total level [8]: down-regulation of total level of cytoplasmic β-catenin

— article PMC4026528 (PLoS ONE, 2014)
